Data on 19 molecules can be found in ChEMBL document CHEMBL5291721, “A preclinical secondary pharmacology resource illuminates target-adverse drug reaction associations of marketed drugs” (Nat Commun, 2023).

By AC50 is commonly meant the concentration at which the activity in the assay is half-maximal. Higher therefore signals activity only at high concentration.

One assay has as its target Adenosine receptor A2a (Homo sapiens, UniProt P29274).
Assay [1] concerns the target T1, Type-1 angiotensin II receptor (Homo sapiens, UniProt P30556).
T1 sequence (P30556 whole entry): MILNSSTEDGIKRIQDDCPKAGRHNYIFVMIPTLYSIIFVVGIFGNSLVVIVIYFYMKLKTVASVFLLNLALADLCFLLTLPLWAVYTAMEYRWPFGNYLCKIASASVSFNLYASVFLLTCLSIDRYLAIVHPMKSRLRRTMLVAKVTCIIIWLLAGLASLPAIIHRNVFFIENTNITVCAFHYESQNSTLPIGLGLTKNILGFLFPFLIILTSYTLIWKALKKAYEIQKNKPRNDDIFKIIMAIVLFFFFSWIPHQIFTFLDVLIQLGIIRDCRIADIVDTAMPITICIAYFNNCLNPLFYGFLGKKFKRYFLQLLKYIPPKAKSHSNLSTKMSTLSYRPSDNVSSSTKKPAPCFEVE

In assay [2] the target is T2, Gastrin/cholecystokinin type B receptor (Homo sapiens, UniProt P32239).
T2 sequence (P32239 whole entry): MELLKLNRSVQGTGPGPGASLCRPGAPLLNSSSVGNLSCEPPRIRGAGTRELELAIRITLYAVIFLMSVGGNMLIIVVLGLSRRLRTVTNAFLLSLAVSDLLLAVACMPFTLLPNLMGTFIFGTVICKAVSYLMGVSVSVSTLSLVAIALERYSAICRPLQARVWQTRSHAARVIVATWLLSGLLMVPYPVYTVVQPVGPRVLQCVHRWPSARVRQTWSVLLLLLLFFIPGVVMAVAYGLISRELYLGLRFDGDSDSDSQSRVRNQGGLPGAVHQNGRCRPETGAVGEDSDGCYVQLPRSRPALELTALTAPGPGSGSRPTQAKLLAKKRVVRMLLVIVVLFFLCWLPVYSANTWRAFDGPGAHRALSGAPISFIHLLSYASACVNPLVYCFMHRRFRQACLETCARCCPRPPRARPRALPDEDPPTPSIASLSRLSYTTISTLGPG

Assay [3] deals with T3, 5-hydroxytryptamine receptor 1A (Homo sapiens, UniProt P08908).
T3 sequence (P08908 whole entry): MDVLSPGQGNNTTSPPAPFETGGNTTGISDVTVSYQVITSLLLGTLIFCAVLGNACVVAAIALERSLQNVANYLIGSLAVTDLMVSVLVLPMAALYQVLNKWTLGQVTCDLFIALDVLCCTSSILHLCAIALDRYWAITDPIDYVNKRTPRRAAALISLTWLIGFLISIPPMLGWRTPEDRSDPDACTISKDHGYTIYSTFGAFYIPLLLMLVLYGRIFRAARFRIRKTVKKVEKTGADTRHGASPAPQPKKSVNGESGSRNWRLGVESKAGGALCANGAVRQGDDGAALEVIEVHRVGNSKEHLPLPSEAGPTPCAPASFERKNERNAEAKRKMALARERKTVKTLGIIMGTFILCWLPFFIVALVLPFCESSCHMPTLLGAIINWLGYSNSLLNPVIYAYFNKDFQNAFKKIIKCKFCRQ
The class given is functional, cell-based.

The target of another assay is T4, Progesterone receptor (Homo sapiens, UniProt P06401).
T4 sequence (P06401 whole entry): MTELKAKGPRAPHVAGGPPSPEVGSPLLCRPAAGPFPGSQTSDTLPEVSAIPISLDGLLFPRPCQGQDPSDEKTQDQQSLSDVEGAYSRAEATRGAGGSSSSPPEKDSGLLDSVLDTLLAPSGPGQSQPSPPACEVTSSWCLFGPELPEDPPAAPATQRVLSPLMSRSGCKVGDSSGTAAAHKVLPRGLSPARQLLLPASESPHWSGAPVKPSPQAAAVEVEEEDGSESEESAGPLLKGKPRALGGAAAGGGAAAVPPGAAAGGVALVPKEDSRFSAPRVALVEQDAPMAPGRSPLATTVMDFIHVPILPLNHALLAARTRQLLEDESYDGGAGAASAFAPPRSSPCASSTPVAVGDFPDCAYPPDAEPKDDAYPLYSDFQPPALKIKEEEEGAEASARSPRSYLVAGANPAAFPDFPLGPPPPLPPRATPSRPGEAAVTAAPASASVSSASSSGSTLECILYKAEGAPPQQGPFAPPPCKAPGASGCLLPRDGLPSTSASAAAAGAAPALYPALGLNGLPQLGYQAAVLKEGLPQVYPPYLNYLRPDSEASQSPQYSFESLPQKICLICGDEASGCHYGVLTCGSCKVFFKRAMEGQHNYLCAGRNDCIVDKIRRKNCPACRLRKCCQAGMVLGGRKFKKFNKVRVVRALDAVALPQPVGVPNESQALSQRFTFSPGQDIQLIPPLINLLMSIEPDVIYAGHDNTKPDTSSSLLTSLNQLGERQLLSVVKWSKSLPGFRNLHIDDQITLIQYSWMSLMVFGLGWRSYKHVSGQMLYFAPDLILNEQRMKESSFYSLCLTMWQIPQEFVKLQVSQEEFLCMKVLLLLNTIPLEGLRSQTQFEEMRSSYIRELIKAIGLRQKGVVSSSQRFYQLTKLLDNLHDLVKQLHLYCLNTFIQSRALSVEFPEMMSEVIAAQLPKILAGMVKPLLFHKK
Format: functional.

Another assay concerns the target D(3) dopamine receptor (Homo sapiens, UniProt P35462).
Assay [4] deals with Sodium-dependent noradrenaline transporter (Homo sapiens, UniProt P23975).
In assay [5] the target is T5, Alpha-1A adrenergic receptor (Homo sapiens, UniProt P35348).
T5 sequence (P35348 whole entry): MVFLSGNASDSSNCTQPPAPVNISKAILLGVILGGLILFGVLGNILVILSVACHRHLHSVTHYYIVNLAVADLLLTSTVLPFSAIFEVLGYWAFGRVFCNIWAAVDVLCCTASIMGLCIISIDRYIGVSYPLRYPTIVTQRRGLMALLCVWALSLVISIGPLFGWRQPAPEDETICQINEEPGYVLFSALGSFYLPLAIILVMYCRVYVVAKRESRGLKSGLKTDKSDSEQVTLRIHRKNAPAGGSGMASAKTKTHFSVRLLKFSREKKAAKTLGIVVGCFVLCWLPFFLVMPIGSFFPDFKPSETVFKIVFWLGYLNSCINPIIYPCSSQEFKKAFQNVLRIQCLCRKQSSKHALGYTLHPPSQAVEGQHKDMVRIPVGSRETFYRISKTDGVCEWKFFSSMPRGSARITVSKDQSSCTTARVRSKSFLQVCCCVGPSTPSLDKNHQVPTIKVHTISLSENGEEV
Format: functional, cell-based.
Note: assay procedure not described here.

Chain of Sodium-dependent noradrenaline transporter (P23975 whole entry): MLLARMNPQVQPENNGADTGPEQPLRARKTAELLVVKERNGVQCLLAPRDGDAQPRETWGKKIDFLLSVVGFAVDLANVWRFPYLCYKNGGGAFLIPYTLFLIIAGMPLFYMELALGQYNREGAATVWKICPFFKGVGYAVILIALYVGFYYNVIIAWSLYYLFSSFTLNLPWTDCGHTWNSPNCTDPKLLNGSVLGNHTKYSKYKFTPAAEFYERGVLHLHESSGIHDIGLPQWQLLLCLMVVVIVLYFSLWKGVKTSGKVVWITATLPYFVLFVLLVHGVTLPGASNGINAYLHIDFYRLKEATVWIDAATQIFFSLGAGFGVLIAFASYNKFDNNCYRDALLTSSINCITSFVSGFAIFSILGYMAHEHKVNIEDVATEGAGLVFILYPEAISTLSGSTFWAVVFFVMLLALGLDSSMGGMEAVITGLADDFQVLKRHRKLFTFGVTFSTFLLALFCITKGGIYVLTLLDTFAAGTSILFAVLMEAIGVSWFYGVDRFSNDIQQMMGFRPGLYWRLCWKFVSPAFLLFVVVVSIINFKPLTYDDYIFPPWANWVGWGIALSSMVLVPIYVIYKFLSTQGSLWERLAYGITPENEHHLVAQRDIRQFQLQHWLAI
Chain of D(3) dopamine receptor (P35462 whole entry): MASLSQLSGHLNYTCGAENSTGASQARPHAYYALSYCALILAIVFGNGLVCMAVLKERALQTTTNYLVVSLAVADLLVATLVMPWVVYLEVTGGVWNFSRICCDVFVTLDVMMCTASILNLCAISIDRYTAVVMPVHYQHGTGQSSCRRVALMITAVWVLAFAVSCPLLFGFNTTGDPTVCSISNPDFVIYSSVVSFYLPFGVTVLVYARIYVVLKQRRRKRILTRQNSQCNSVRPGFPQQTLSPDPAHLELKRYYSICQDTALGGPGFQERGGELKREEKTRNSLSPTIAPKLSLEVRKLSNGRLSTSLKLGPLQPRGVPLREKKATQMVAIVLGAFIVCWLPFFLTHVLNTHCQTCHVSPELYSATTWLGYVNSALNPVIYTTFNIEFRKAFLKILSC
Chain of Adenosine receptor A2a (P29274 whole entry): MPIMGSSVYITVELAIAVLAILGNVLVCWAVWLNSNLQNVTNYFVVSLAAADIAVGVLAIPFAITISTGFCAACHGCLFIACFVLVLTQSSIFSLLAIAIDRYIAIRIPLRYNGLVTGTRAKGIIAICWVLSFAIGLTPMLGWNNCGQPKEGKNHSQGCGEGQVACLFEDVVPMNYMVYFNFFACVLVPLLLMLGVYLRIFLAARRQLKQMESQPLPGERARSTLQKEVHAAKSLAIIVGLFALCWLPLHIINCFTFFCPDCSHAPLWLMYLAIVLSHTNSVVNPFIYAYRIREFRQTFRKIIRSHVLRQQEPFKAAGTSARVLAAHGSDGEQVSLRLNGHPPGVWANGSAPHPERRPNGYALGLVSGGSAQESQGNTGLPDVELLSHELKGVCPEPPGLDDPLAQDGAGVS

Take `C[N+]1(C)CCC(=C(c2ccccc2)c2ccccc2)CC1`: the AC50 on Adenosine receptor A2a was above 30 µM; in assay [1], above 10 µM; in assay [2] it was above 30 µM; in assay [3], above 10 µM; on Progesterone receptor, above 10 µM; at D(3) dopamine receptor it was above 30 µM.
Regarding `Cc1ccccc1-n1c(CF)nc2ccc(N)cc2c1=O` [AFLOQUALONE], the concentration at half-maximal activity (AC50) at Adenosine receptor A2a was above 30 µM; in assay [1] it was above 30 µM; in assay [2], above 30 µM; in assay [3], above 10 µM; on Progesterone receptor, above 30 µM; on D(3) dopamine receptor it was above 30 µM.
As for `O=C(/C=C/c1cccc(S(=O)(=O)Nc2ccccc2)c1)NO` [BELINOSTAT], the AC50 (on Adenosine receptor A2a; in assay [1]; in assay [2]; in assay [4]; at D(3) dopamine receptor) was above 30 µM throughout.
In the case of `CC(C)(Oc1ccc(CCNC(=O)c2ccc(Cl)cc2)cc1)C(=O)O` [BEZAFIBRATE], the AC50 at Adenosine receptor A2a was above 10 µM; in assay [1], above 10 µM; in assay [3], above 30 µM; on Progesterone receptor it was above 10 µM; at D(3) dopamine receptor, above 30 µM; in assay [5], above 30 µM.
`O=C(O)COCCN1CCN(C(c2ccccc2)c2ccc(Cl)cc2)CC1` (configuration not stated) [CETIRIZINE]: the AC50 at Adenosine receptor A2a was above 30 µM; in assay [1] it was above 30 µM; in assay [2], above 30 µM; in assay [3], above 10 µM; in assay [5] it was above 30 µM.
Consider `NC[C@H]1CC[C@H](C(=O)Oc2ccc(CCC(=O)O)cc2)CC1` [CETRAXATE], for which the half-maximal activity concentration (AC50) (in assay [3]; in assay [4]; at D(3) dopamine receptor; in assay [5]) was above 30 µM throughout.
In the case of `CC(=O)O[C@]1(C(C)=O)CC[C@H]2[C@@H]3C=C(Cl)C4=CC(=O)[C@@H]5C[C@@H]5[C@]4(C)[C@H]3CC[C@@]21C` [CYPROTERONE ACETATE], the AC50 (at Adenosine receptor A2a; in assay [1]; in assay [2]; in assay [4]; on D(3) dopamine receptor) was above 30 µM in each case.
Turning to `CNCCc1ccc(OC(=O)C(C)C)c(OC(=O)C(C)C)c1` [IBOPAMINE], the concentration at half-maximal activity (AC50) on Adenosine receptor A2a is above 30 µM; in assay [1], above 30 µM; in assay [2], above 30 µM; in assay [3], above 30 µM; on Progesterone receptor, above 30 µM; on D(3) dopamine receptor, 0.767 µM.
Turning to `CCC[C@@H]1C[C@@H](C(=O)N[C@@H]([C@H]2O[C@H](SC)[C@H](O)[C@@H](O)[C@H]2O)[C@@H](C)O)N(C)C1` [LINCOMYCIN], the AC50 on Adenosine receptor A2a was above 10 µM; in assay [1], above 10 µM; in assay [3], above 30 µM; at D(3) dopamine receptor, above 30 µM; in assay [5] it was above 30 µM.
For the molecule `C=C1c2cccc(O)c2C(=O)C2=C(O)[C@]3(O)C(=O)C(C(N)=O)=C(O)[C@@H](N(C)C)[C@@H]3[C@@H](O)[C@H]12` [METHACYCLINE], the AC50 on Adenosine receptor A2a is above 30 µM; in assay [1], above 10 µM; in assay [2] it was above 30 µM; in assay [3], above 10 µM; at Progesterone receptor it was above 30 µM; on D(3) dopamine receptor, above 30 µM.
Take `OC[C@H]1O[C@@H](n2cnc3c2NC=NC[C@H]3O)C[C@@H]1O` [PENTOSTATIN]: the AC50 is 3.4 µM on Adenosine receptor A2a; above 30 µM in assay [1]; above 30 µM in assay [2]; above 30 µM in assay [3]; above 30 µM at Progesterone receptor; above 30 µM at D(3) dopamine receptor.
Consider `O=C1c2ccccc2C(=O)C1c1ccccc1` [PHENINDIONE], for which the concentration at half-maximal activity (AC50) at Adenosine receptor A2a was above 10 µM; in assay [1] it was above 10 µM; in assay [3] it was above 30 µM; on Progesterone receptor, above 10 µM; at D(3) dopamine receptor it was above 30 µM; in assay [5], above 30 µM.
As for `CC(C)c1cccc(C(C)C)c1O` [PROPOFOL], the AC50 (on Adenosine receptor A2a; in assay [1]; in assay [3]; on Progesterone receptor; at D(3) dopamine receptor; in assay [5]) was above 30 µM each time.
For `CN[C@@H](C)[C@@H](O)c1ccccc1` [PSEUDOEPHEDRINE], the concentration at half-maximal activity (AC50) on Adenosine receptor A2a was above 30 µM; in assay [1], above 30 µM; in assay [2] it was above 30 µM; in assay [3], above 10 µM; on D(3) dopamine receptor, above 10 µM.
For `CCCN1CC(NS(=O)(=O)N(CC)CC)CC2Cc3c(O)cccc3CC21` (configuration not stated) [QUINAGOLIDE], the AC50 was above 30 µM at Adenosine receptor A2a; above 30 µM in assay [1]; above 30 µM in assay [2]; 1.1 µM in assay [3]; above 30 µM on Progesterone receptor; 0.0028 µM at D(3) dopamine receptor.
Take `O=C1OC(OC(=O)c2cccnc2Nc2cccc(C(F)(F)F)c2)c2ccccc21` (configuration not stated) [TALNIFLUMATE]: the AC50 (at Adenosine receptor A2a; in assay [1]; in assay [2]; in assay [3]; on Progesterone receptor; on D(3) dopamine receptor) was above 30 µM throughout.
With `O=S1(=O)CCN(CN2CCS(=O)(=O)NC2)CN1` [TAUROLIDINE], the half-maximal activity concentration (AC50) on Adenosine receptor A2a is above 30 µM; in assay [3], above 30 µM; on Progesterone receptor, above 30 µM; in assay [4], above 30 µM; at D(3) dopamine receptor, 27 µM; in assay [5], above 30 µM.
As to `C[C@]12C=CC(=O)C=C1CC[C@@H]1[C@@H]2CC[C@]2(C)OC(=O)CC[C@@H]12` [TESTOLACTONE], the AC50 at Adenosine receptor A2a was above 10 µM; in assay [1], above 10 µM; in assay [3] it was above 30 µM; on Progesterone receptor it was above 10 µM; on D(3) dopamine receptor, above 30 µM; in assay [5] it was above 30 µM.
`CCOC(=O)c1c(CSc2ccccc2)n(C)c2cc(Br)c(O)c(CN(C)C)c12` [UMIFENOVIR]: the AC50 is 23 µM on Adenosine receptor A2a; above 30 µM in assay [1]; above 30 µM in assay [2]; above 30 µM in assay [3]; above 30 µM on Progesterone receptor; 6.8 µM at D(3) dopamine receptor.
